This passage reports IC50 and melting point results from US7223794B2, “Arylheteroalkylamine derivatives and their use as inhibitors of nitric oxide synthase” (AstraZeneca AB, priority 2001, dated 2007).

Where a name gives a salt, the structure may show the parent alone. Some results are limits rather than exact numbers.

One data set deals with human form of induced nitric oxide synthase. Kind of data set: Screen 3: nitrite accumulation (Griess) in cytokine-induced DLD-1 cells. The format is cell-based. The settings on record: DLD-1 cells induced with gamma-IFN, TNF-alpha, IL-6, IL-1-beta, 5 hours incubation with compound, read-out: IC50 (inhibition of nitrite accumulation). The protocol: The human colorectal carcinoma cell line, DLD-1 (obtained from the European Collection of Animal Cell Culture—cell line number 90102540) was routinely grown in RPMI 1640 supplemented with 10%(v/v) foetal bovine serum, and 2 mM L-glutanmine, at 37° C. in 5% CO2.
Nitric oxide synthase was induced in cells by addition of medium containing human recombinant gamma-IFN (1000 units/ml), TNF-alpha (200 U/ml), IL-6 (200 U/ml) and IL-1-beta (250 U/ml). After incubation for 18 hours at 37° C., the medium was removed and the cells washed with warm phosphate buffered saline. Cells were incubated for a further 5 hours at 37° C./5% CO2 in RPMI 1640 containing 100 μM L-arginine and 100 μM verapamil-HCl in the presence and absence of test compounds.
Nitrite accumulation was determined by mixing an equal volume of culture media with Griess reagent (10 mg/ml sulphanilamide, 1 mg N-(1-naphthyl)ethylenediamine in 1 ml 2.5% (v/v) phosphoric acid). Inhibition in the presence of compounds was calculated relative to the nitrite levels produced by untreated cells. IC50 values were estimated from a semi-log plot of % inhibition versus concentration of compound.
As to `CC(=N)NCC(Oc1cc(Cl)c(F)cc1C#N)c1ccccc1.Cl` (stereo not drawn) [Example 5, N-[2-(5-Chloro-2-cyano-4-fluorophenoxy)-2-phenylethyl]-ethanimidamide hydrochloride], the IC50 was below 100 µM.

Turning to `N#Cc1ccc(Cl)cc1S[C@H](CN)c1ccccc1` [Example 4, 2-[[(1S)-2-Amino-1-phenylethyl]thio]-4-chlorobenzonitrile hydrochloride], the IC50 is below 100 µM.

As to `N#Cc1ccc(Cl)cc1SC(CN)c1cccnc1` (stereo not drawn) [Example 11, 2-[[2-Amino-1-(3-pyridinyl)ethyl]thio]-4-chlorobenzonitrile], the IC50 was below 100 µM.

As to `N#Cc1ccc(C(F)(F)F)nc1S[C@H](CN)c1ccccc1` [Example 7, 2-[[(1S)-2-Amino-1-phenylethyl]thio]-6-(trifluoromethyl)-3-piridinecarbonitrile], the IC50 is below 100 µM.

In the case of `NCC(Sc1cc(Cl)ccc1Cl)c1ccccc1` (stereo not drawn) [Example 3, 2-[(2,5-Dichlorophenyl)thio]-2-phenylethylamine hydrochloride], the IC50 is below 100 µM.

Turning to `CNC[C@@H](Sc1cc(Cl)ccc1C#N)c1ccccc1` [Example 9, 4-Chloro-2-[[(1S)-2-(methylamino)-1-phenylethyl]thio]benzonitrile hydrochloride], the IC50 was below 100 µM.

For `N#Cc1cc(F)c(Cl)cc1O[C@H](CN)c1ccccc1` [Example 1, 2-[[(1S)-2-Amino-1-phenylethyl]oxy]-4-chloro-5-fluorobenzonitrile (E)-butenedioate], the IC50 was below 100 µM.

Take `COc1ccc(C#N)c(S[C@H](CN)c2ccccc2)c1` [Example 8, 2-[[(1S)-2-Amino-1-phenylethyl]thio]-4-methoxybenzonitrile hydrochloride]: the IC50 is below 100 µM.

For `Cc1ccc(C#N)c(S[C@H](CN)c2ccccc2)n1` [Example 2, 2-[[(1S)-2-Amino-1-phenylethyl]thio]-6-methyl-3-pyridinecarbonitrile hydrochloride], the IC50 was below 100 µM.

As for `N#Cc1cc(F)c(Cl)cc1O[C@H](CN)c1ccon1` [Example 10, 2-[[(1R)-2-Amino-1-(3-isoxazolyl)ethyl]oxy]-4-chloro-5-fluorobenzonitrile ethanedioate], the IC50 was below 100 µM.

System in the next data set: not given
Assay: not given
Settings: not given
Turning to `CC(=N)NCC(Oc1cc(Cl)c(F)cc1C#N)c1ccccc1.Cl` (stereo not drawn) [Example 5, N-[2-(5-Chloro-2-cyano-4-fluorophenoxy)-2-phenylethyl]-ethanimidamide hydrochloride], the melting point (as a rule, the temperature, or range, at which the solid turns liquid) is 133 to 135 °C.

The next data set addresses T1, Nitric oxide synthase (Mus musculus, UniProt P29477).
T1 construct: endogenous in cells; host or cells: J774A-1 murine macrophage cell line, induced with LPS and IFNg; crude cell lysate
Kind of data set: Screen 1: nitric oxide synthase inhibition, 3H-L-arginine to 3H-L-citrulline conversion, lysate of induced J774A-1 cells. In kind it is biochemical, murine. The settings on record: enzyme from LPS/IFNg-induced J774A-1 macrophage lysate; 1 hour at room temperature; read-out: IC50 (concentration of drug substance which gives 50% enzyme inhibition in the assay). The protocol:
The activity of compounds of formula (I), or a pharmaceutically acceptable salt thereof, may be screened for nitric oxide synthase inhibiting activity by a procedure based on that of Förstermann et al., Eur. J. Pharm., 1992, 225, 161–165. Nitric oxide synthase converts ^3H-L-arginine into ^3H-L-citrulline which can be separated by cation exchange chromatography and quantified by liquid scintillation counting.
Enzyme is prepared, after induction, from the cultured murine macrophage cell line J774A-1 (obtained from the laboratories of the Imperial Cancer Research Fund). J774A-1 cells are cultured in Dulbeccos Modified Eagles Medium (DMEM) supplemented with 10% foetal bovine serum, 4 mM L-glutamine and antibiotics (100 units/nl penicillin G, […] streptomycin & […] ainphotericin B). Cells are routinely grown in […] flasks containing 35 ml medium kept at 37° C. and in a humidified atmosphere containing 5% CO2. […]
Labelled L-citrulline is separated from labelled L-arginine using Dowex AG-50W. […] After allowing the samples to dry the L-citrulline is quantified by scintillation counting.
In a typical experiment basal activity is 300 dpm per 75 μl sample which is increased to 1900 dpm in the reagent controls. […] Compounds are tested at a range of concentrations and from the inhibitions is obtained IC50 values are calculated. […]
As to `N=C(N)NN` [ainlinoguanidine], the IC50 amounted to 10 µM.
